Measurements: US20110313672A1, “CELLULAR ANTIOXIDANT ACTIVITY (CAA) ASSAY” (CORNELL UNIVERSITY, priority 2007, published 2011)
Where “and” joins values, the source holds several entries; their conditions need not be identical. Identical values can stand only once. Like-named read-outs stand apart in the source and are kept apart here.

Experiments:
HepG2 cells = assay: Cellular antioxidant activity (CAA) assay: inhibition of peroxyl radical-induced DCFH oxidation; type: cell-based, human; conditions: for EC50: mean ± SD, n=3; for CAA value: Example 1, pure compounds, EC50 converted to quercetin equivalents
[1] = Oxygen radical absorbance capacity (ORAC) assay; conditions: Example 3; flavonoids; mean ± SD, n ≧ 3
Procedure: The peroxyl radical scavenging efficacy of selected fruits was measured using the ORAC assay (Prior, R. L., et al (2003) J. Agric. Food Chem. 51:3273-3279). Briefly, 20 μL of blank, Trolox standard, or fruit extracts in 75 mM potassium phosphate buffer, pH 7.4 (working buffer), was added to triplicate wells in a black, clear-bottom, 96-well microplate. The triplicate samples were distributed throughout the microplate and were not placed side-by-side, to avoid any effects on readings due to location. In addition, no outside wells were used, as use of those wells results in greater variation. A volume of 200 μL of 0.96 μM fluorescein in working buffer was added to each well and incubated at 37° C. for 20 min, with intermittent shaking, before the addition of 20 μL of freshly prepared 119 mM ABAP in working buffer using a 12-channel pipetter. The microplate was immediately inserted into a Fluoroskan Ascent FL plate reader (ThermoLabsystems) at 37° C. The decay of fluorescence at 538 nm was measured with excitation at 485 nm every 4.5 min for 2.5 h. The areas under the fluorescence versus time curve for the samples minus the area under the curve for the blank were calculated and compared to a standard curve of the areas under the curve for 6.25, 12.5, 25, and 50 μM Trolox standards minus the area under the curve for blank. ORAC values were expressed as mean micromoles of Trolox equivalents (TE) per 100 g of fruit±SD for triplicate data from one experiment.
ORAC measurements were performed as described herein in Example 2.

EC50 (HepG2 cells; Example 1, Table 1, PBS wash, pure phytochemical compounds, read-out: EC50 for inhibition of peroxyl radical-induced DCFH oxidation): 15.8 ± 0.4 µM
EC50 (HepG2 cells; Example 1, Table 1, no PBS wash, pure phytochemical compounds, read-out: EC50 for inhibition of peroxyl radical-induced DCFH oxidation): 14 ± 1 µM
EC50 (HepG2 cells; Example 3, Table 7, PBS wash, flavonoids, read-out: EC50): 12.8 ± 0.9 µM
EC50 (HepG2 cells; Example 3, Table 7, no PBS wash, flavonoids, read-out: EC50): 12.3 ± 0.7 µM
Substance: (−)-epigallocatechin gallate [EGCG]
CAA value (HepG2 cells; PBS wash): 32.3 ± 0.9 µmol QE/100 µmol
CAA value (HepG2 cells; no PBS wash): 42.2±3.1 μmol QE/100 μmol
CAA (HepG2 cells; Example 3, Table 7, PBS wash): 63.8 ± 4.4 μmol of QE/100 μmol
CAA (HepG2 cells; Example 3, Table 7, no PBS wash): 72.1 ± 3.8 μmol of QE/100 μmol
ORAC [1]: 4.55±0.40 μmol of TE/μmol and 4.55 ± 0.40 fgh μmol of TE/μmol
